How the values were obtained:
Format in all cases: in vivo, BALB/c mice
[1] = system: 4T1 mouse breast cancer; experiment: Anti-tumor activity in the 4T1 breast cancer mouse model (with anti-CTLA4)
Procedure: The antitumor activity of Compound B (as described in example 14 above) as a single agent and combined with a mouse anti-CTLA4 antibody was evaluated in the 4T1 mouse breast cancer model grown in BALB/c mice. Mice were inoculated subcutaneously in the right flank with 3×10^5 tumor cells. When tumors reached an average size of 100 mm^3 (7 days after tumor cell inoculation) dosing was initiated.

[2] = system: CT-26 mouse colon adenocarcinoma; experiment: Anti-tumor activity in the CT-26 model, additional experiment (with anti-PD1, 7 mice per cohort); conditions: during the period of dosing; single agents (Compound B 15 mg/kg BID p.o.; anti-PD1 10 mg/kg BIW i.p.); compared with vehicle group; FIG. 26
Procedure: (§1) The antitumor activity of Compound B as a single agent and combined with a mouse anti-PD1 antibody was evaluated in the CT-26 mouse colon adenocarcinoma model grown in BALB/c mice in an additional experiment. Mice were inoculated subcutaneously in the right flank with 5×10^5 tumor cells. When tumors reached an average size of 91 mm^3 dosing was initiated. The dosing regimens in the 4 separate cohorts comprising 7 mice each are as follows: […]

[3] = system: CT-26 mouse colon adenocarcinoma; experiment: Anti-tumor activity in the CT-26 colon adenocarcinoma mouse model (with anti-PD-1, 10 mice per cohort); conditions: for tumor growth kinetics: during the period of dosing, compared with vehicle treated mice, FIG. 22
Procedure: The antitumor activity of Compound B as a single agent and combined with a mouse anti-PD-1 antibody was evaluated in the CT-26 mouse colon adenocarcinoma model grown in BALB/c mice. Mice were inoculated subcutaneously in the right flank with 5×10^5 tumor cells.
When tumors reached an average size of 71 mm^3 (6 days after tumor cell inoculation) dosing was initiated. The dosing regimens in the 8 separate cohorts comprising 10 mice each are as follows: […]

[4] = system: 4T1 mouse breast cancer; experiment: Anti-tumor activity in the 4T1 model, additional experiment (with anti-PD1, 7 mice per cohort); conditions: during the period of dosing; Compound B 15 mg/kg BID; compared with vehicle group and anti-PD1 dosed alone; FIG. 27
Procedure: as §1, with “4T1” for “CT-26”, “breast cancer” for “colon adenocarcinoma”, “3×10^5” for “5×10^5”, “97” for “91”

[5] = system: immune cells of CT-26 tumors; experiment: Immune cell composition of CT-26 tumors by multi-color flow cytometry; conditions: after 7 days dosing, Compound B 15 mg/kg BID p.o., anti-PD1 10 mg/kg Q3D i.p., vs vehicle
Procedure: The immune cell composition of Compound B (as described in example 14 above) as a single agent and combined with a mouse anti-PD1 antibody was evaluated in the CT-26 mouse colon adenocarcinoma model grown in BALB/c mice. Mice were inoculated subcutaneously in the right flank with 5×10^5 tumor cells. When tumors reached an average size of 85 mm^3 dosing was initiated. The dosing regimens in the 4 separate cohorts comprising 10 mice each are listed as follows:
After dosing animals for 7 days, tumors were resected and used to prepare single cell suspensions. Live cells representing tumor and immune cells were stained with cocktails of antibodies targeting multiple immune cell markers (anti-CD45, anti-CD3, anti-CD4, anti-CD8, anti-CD25, anti-FoxP3, anti-PD-1, anti-CD11c) conjugated to different fluorescent tags. The stained cells were fixed in 4% paraformaldehyde and quantified using a multi-color flow cytometer (Fortessa). The data was analyzed with FloJo software.

[6] = 99 days after tumor inoculation, 10 mice per cohort

With C[C@H](NC(=O)c1cc(Cl)cnc1Oc1cccc(F)c1)c1ccc(C(=O)O)cc1 [Compound B] the mice still alive ([1]; 47 days after tumor inoculation, 10 mice per group) was “none”, the tumor growth kinetics ([1]; during the period of dosing, single agents (Compound B 15 mg/kg BID; anti-CTLA4), relative to vehicle treated mice, FIG. 24) was “decreased relative to the vehicle treated mice” and the tumor growth kinetics [2] was “less than that of the vehicle group”. The mice still alive [3, 6] was 1 out of 10, the mice tumor free [3, 6] was 1 out of 10 and the tumor growth kinetics ([3]; 15 mg/kg BID p.o.) was “not notably different”. For the same compound, the tumor growth kinetics ([3]; 15 mg/kg QD p.o.) was “not notably different”, the tumor growth kinetics [4] was “less than that of the vehicle group and anti-PD1 when dosed alone” and the “regulatory T cells (CD45, CD4, FoxP3, CD25 positive) in tumor” value ([5]; FIG. 28a) was “significant decrease”. For the same compound, the “percentage of dendritic cells (CD45, CD11c positive) in tumor” value ([5]; FIG. 28b) was “increased percentage” and the “percentage of activated T cells (CD45, CD3, CD8; CD25 expression) in tumor” value ([5]; FIG. 28c) was “did not”.
